Columns and labels:
Experiment in all cases: relative viability (nuclei count vs DMSO), 5 days (fraction); higher = more cells survive
BEN = test system: BEN
How it was run: (§1)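 Lung cancer cell lines, seeded in 1536-well plates, were treated the following day by pin tool with a single drug or with five library-drug doses (not always all listed) in √10 steps on top of a fixed anchor-drug dose. Cells were fixed and nuclei stained in one step after 5 days, and nuclei were counted. Relative viability is the nuclei count for treated wells divided by that for vehicle wells, reported as medians of duplicate plates.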

CAL-12T = test system: CAL-12T
How it was run: as §1

EKVX = test system: EKVX
How it was run: as §1

HCC-15 = test system: HCC-15
How it was run: as §1

HCC-366 = test system: HCC-366
How it was run: as §1

HCC-44 = test system: HCC-44
How it was run: as §1

LCLC-103H = test system: LCLC-103H
How it was run: as §1

LOU-NH91 = test system: LOU-NH91
How it was run: as §1

NCI-H1355 = test system: NCI-H1355
How it was run: as §1

NCI-H1395 = test system: NCI-H1395
How it was run: as §1

NCI-H1437 = test system: NCI-H1437
How it was run: as §1

NCI-H1651 = test system: NCI-H1651
How it was run: as §1

NCI-H1734 = test system: NCI-H1734
How it was run: as §1

NCI-H1755 = test system: NCI-H1755
How it was run: as §1

NCI-H1975 = test system: NCI-H1975
How it was run: as §1

NCI-H2085 = test system: NCI-H2085
How it was run: as §1

NCI-H2342 = test system: NCI-H2342
How it was run: as §1

NCI-H358 = test system: NCI-H358
How it was run: as §1

NCI-H441 = test system: NCI-H441
How it was run: as §1

NCI-H460 = test system: NCI-H460
How it was run: as §1

NCI-H838 = test system: NCI-H838
How it was run: as §1

Clc1ccc(Nc2nnc(Cc3ccncc3)c3ccccc23)cc1 [Vatalanib] + NC(=O)Nc1cc(-c2cccc(F)c2)sc1C(=O)N[C@H]1CCCNC1 [AZD7762] (partner 0.2 µM)
relative viability (BEN; first compound 0.04 µM): 0.676
relative viability (BEN; first compound 0.1265 µM): 0.732
relative viability (BEN; first compound 0.4 µM): 0.596
relative viability (BEN; first compound 1.265 µM): 0.602
relative viability (BEN; first compound 4 µM): 0.685
relative viability (CAL-12T; first compound 0.04 µM): 0.683
relative viability (CAL-12T; first compound 0.1265 µM): 0.599
relative viability (CAL-12T; first compound 0.4 µM): 0.588
relative viability (CAL-12T; first compound 1.265 µM): 0.469
relative viability (CAL-12T; first compound 4 µM): 0.574
relative viability (EKVX; first compound 0.04 µM): 0.646
relative viability (EKVX; first compound 0.1265 µM): 0.623
relative viability (EKVX; first compound 0.4 µM): 0.679
relative viability (EKVX; first compound 1.265 µM): 0.679
relative viability (EKVX; first compound 4 µM): 0.64
relative viability (HCC-15; first compound 0.04 µM): 1.18
relative viability (HCC-15; first compound 0.1265 µM): 1.23
relative viability (HCC-15; first compound 0.4 µM): 1.13
relative viability (HCC-15; first compound 1.265 µM): 1.32
relative viability (HCC-15; first compound 4 µM): 1.54
relative viability (HCC-366; first compound 0.04 µM): 0.325
relative viability (HCC-366; first compound 0.1265 µM): 0.253
relative viability (HCC-366; first compound 0.4 µM): 0.32
relative viability (HCC-366; first compound 1.265 µM): 0.194
relative viability (HCC-366; first compound 4 µM): 0.226
relative viability (HCC-44; first compound 0.04 µM): 1.01
relative viability (HCC-44; first compound 0.1265 µM): 1.03
relative viability (HCC-44; first compound 0.4 µM): 0.959
relative viability (HCC-44; first compound 1.265 µM): 0.983
relative viability (HCC-44; first compound 4 µM): 1
relative viability (LCLC-103H; first compound 0.04 µM): 0.797
relative viability (LCLC-103H; first compound 0.1265 µM): 0.714
relative viability (LCLC-103H; first compound 0.4 µM): 0.803
relative viability (LCLC-103H; first compound 1.265 µM): 0.806
relative viability (LCLC-103H; first compound 4 µM): 0.725
relative viability (LOU-NH91; first compound 0.04 µM): 0.786
relative viability (LOU-NH91; first compound 0.1265 µM): 0.691
relative viability (LOU-NH91; first compound 0.4 µM): 0.756
relative viability (LOU-NH91; first compound 1.265 µM): 0.708
relative viability (LOU-NH91; first compound 4 µM): 0.686
relative viability (NCI-H1355; first compound 0.04 µM): 0.792
relative viability (NCI-H1355; first compound 0.1265 µM): 0.745
relative viability (NCI-H1355; first compound 0.4 µM): 0.767
relative viability (NCI-H1355; first compound 1.265 µM): 0.578
relative viability (NCI-H1355; first compound 4 µM): 0.597
relative viability (NCI-H1395; first compound 0.04 µM): 0.381
relative viability (NCI-H1395; first compound 0.1265 µM): 0.381
relative viability (NCI-H1395; first compound 0.4 µM): 0.389
relative viability (NCI-H1395; first compound 4 µM): 0.394
relative viability (NCI-H1437; first compound 0.04 µM): 1.07
relative viability (NCI-H1437; first compound 0.1265 µM): 1.08
relative viability (NCI-H1437; first compound 0.4 µM): 1.18
relative viability (NCI-H1437; first compound 1.265 µM): 1.06
relative viability (NCI-H1437; first compound 4 µM): 0.997
relative viability (NCI-H1651; first compound 0.04 µM): 0.441
relative viability (NCI-H1651; first compound 0.1265 µM): 0.471
relative viability (NCI-H1651; first compound 0.4 µM): 0.46
relative viability (NCI-H1651; first compound 1.265 µM): 0.359
relative viability (NCI-H1651; first compound 4 µM): 0.4
relative viability (NCI-H1734; first compound 0.04 µM): 0.534
relative viability (NCI-H1734; first compound 0.1265 µM): 0.484
relative viability (NCI-H1734; first compound 0.4 µM): 0.537
relative viability (NCI-H1734; first compound 1.265 µM): 0.536
relative viability (NCI-H1734; first compound 4 µM): 0.528
relative viability (NCI-H1755; first compound 0.04 µM): 0.451
relative viability (NCI-H1755; first compound 0.1265 µM): 0.406
relative viability (NCI-H1755; first compound 0.4 µM): 0.489
relative viability (NCI-H1755; first compound 1.265 µM): 0.418
relative viability (NCI-H1755; first compound 4 µM): 0.419
relative viability (NCI-H1975; first compound 0.04 µM): 0.731
relative viability (NCI-H1975; first compound 0.1265 µM): 0.66
relative viability (NCI-H1975; first compound 0.4 µM): 0.59
relative viability (NCI-H1975; first compound 1.265 µM): 0.492
relative viability (NCI-H1975; first compound 4 µM): 0.568
relative viability (NCI-H2085; first compound 0.04 µM): 1.12
relative viability (NCI-H2085; first compound 0.1265 µM): 1
relative viability (NCI-H2085; first compound 0.4 µM): 0.998
relative viability (NCI-H2085; first compound 1.265 µM): 0.862
relative viability (NCI-H2085; first compound 4 µM): 0.928
relative viability (NCI-H2342; first compound 0.04 µM): 0.453
relative viability (NCI-H2342; first compound 0.1265 µM): 0.537
relative viability (NCI-H2342; first compound 0.4 µM): 0.378
relative viability (NCI-H2342; first compound 1.265 µM): 0.484
relative viability (NCI-H2342; first compound 4 µM): 0.45
relative viability (NCI-H358; first compound 0.04 µM): 0.694
relative viability (NCI-H358; first compound 0.1265 µM): 0.441
relative viability (NCI-H358; first compound 0.4 µM): 0.57
relative viability (NCI-H358; first compound 1.265 µM): 0.446
relative viability (NCI-H358; first compound 4 µM): 0.481
relative viability (NCI-H441; first compound 0.04 µM): 1.05
relative viability (NCI-H441; first compound 0.1265 µM): 1.18
relative viability (NCI-H441; first compound 0.4 µM): 1.19
relative viability (NCI-H441; first compound 1.265 µM): 1.02
relative viability (NCI-H441; first compound 4 µM): 0.892
relative viability (NCI-H460; first compound 0.04 µM): 0.589
relative viability (NCI-H460; first compound 0.1265 µM): 0.646
relative viability (NCI-H460; first compound 1.265 µM): 0.477
relative viability (NCI-H460; first compound 4 µM): 0.596
relative viability (NCI-H838; first compound 0.04 µM): 1.07
relative viability (NCI-H838; first compound 0.1265 µM): 0.882
relative viability (NCI-H838; first compound 0.4 µM): 1
relative viability (NCI-H838; first compound 1.265 µM): 0.867
relative viability (NCI-H838; first compound 4 µM): 0.87

From the supplement of paper PMC10307832
